Results taken from patent publication US20210259251A1, “[…] PREVENT AND CONTROL FUNGAL PATHOGENS” (priority 2018, published 2021).
“Also recorded” adds a separate entry of the source. Read-outs that look alike come from different tables or passages of the source.

How the values were obtained:
Fusarium oxysporum = experiment: In vitro fungal bioassay, fungitoxic activity; details: maximal concentration 1500 μM; for fungitoxic activity against Fusarium oxysporum (in words): in vitro; for ED95 F. oxysporum: Table 2, effect in 95% of the population
Hemenoscyphus fraxineus = experiment: In vitro antifungal assay (mycelial growth on PDA); details: read-out: ED50
Serpula lacrymans = experiment: In vitro antifungal assay (mycelial growth on PDA); details: read-out: ED50
Colletotrichum dematium = experiment: In vitro antifungal assay (mycelial growth on PDA); details: read-out: ED50
Botrytis cinerea = experiment: In vitro fungal bioassay, fungitoxic activity; details: for fungitoxic activity against Botrytis cinerea (in words): in vitro, dose range between 10 and 1500 μM; for ED95 Botrytis cinerea: effect in 95% of the population, maximal concentration 1500 μM
Septoria tritici = experiment: In vitro antifungal assay (mycelial growth on PDA); details: Zymoseptoria tritici, read-out: ED50
Alternaria radicina = experiment: Fungitoxic activity of combined isothiocyanates, 48 well plates, synergy (CompuSyn)
Experimental: (§1) Applicants examined fungitoxic activities of combined isothiocyanates in three necrotrophic fungal species, i.e. Alternaria radicina (class: Dothideomycetes; order: Pleosporales; host: carrot), Fusarium gramineum (class: Sordariomycetes; order: Hypocreales; host: cereals) and Plectosphaerella cucumerina (class: Sordariomycetes; order: Glomerellales; host: tomato and cucurbits).
(§2) Fungitoxic activities were tested in 48 well tissue culture plates. […] Synergistic fungitoxic activities was then estimated as in Chou (2006), and the CompuSyn software (www.combosyn.com) was used to determine the Combination Index (CI) for combinations of two molecules and the presence of synergism (CI<1).

[1] = tested on: Plectosphaerella cucumerina; experiment: as above
Experimental: as §1, §2

Fusarium gramineum [2] = experiment: as above
Experimental: as §1, §2

Fusarium gramineum [3] = experiment: microbe, parasite or virus in culture; assay type: cell-based; details: for EC50: read-out: ED50 F. gramineum
Phytophthora cactorum = experiment: microbe, parasite or virus in culture; assay type: cell-based
Guignardia bidwellii = experiment: In vitro fungal bioassay, fungitoxic activity; assay type: cell-based; details: Phyllosticta ampelicida; Table 5; unit from the concentration series of the method; read-out: ED50 G. bidwellii
Phytophthora infestans = experiment: microbe, parasite or virus in culture; assay type: cell-based; details: read-out: ED50 P. infestans
[4] = 168 h, read-out: EC50 Molecule 2
[5] = Table 3, maximal dosage 1500 μM
[6] = 168 h, read-out: EC50 Molecule 2, Alternaria radicina, second molecule alone, range 10-850 μM, 850 = no fungitoxic activity in the tested range
[7] = read-out: EC50 Molecule 1, Alternaria radicina, first molecule alone, range 10-850 μM, 850 = no fungitoxic activity in the tested range
[8] = 168 h, read-out: EC50 Molecule 1
[9] = Fusarium, Table 5, unit from the concentration series of the method

SMILES: CS(=O)(=O)CCCCCCCN=C=S [7-methylsulfonyl-heptyl isothiocyanate]
- fungitoxic activity against Fusarium oxysporum (in words) (Fusarium oxysporum): non-active
- EC50 (Hemenoscyphus fraxineus): 770 µM
- EC50 (Serpula lacrymans): 150 µM
- EC50 (Colletotrichum dematium): 650 µM
- fungitoxic activity against Botrytis cinerea (in words) (Botrytis cinerea): no fungitoxic activity; also recorded: non-active
- EC50 (Septoria tritici): 350 µM

SMILES: C[S+]([O-])CCCN=C=S (centres unmarked) [Molecule 3MSOH, 1-Isothiocyanato-3-(methylsulfinyl)-propane]
- EC50 (Alternaria radicina; [4]): 786 µM
- EC50 [1, 4]: 627 µM
- EC50 (Fusarium gramineum [2]; [4]): 525 µM
- EC50 (Fusarium gramineum [2]; read-out: EC50 Molecule 2): 525 µM

SMILES: CS(=O)(=O)CCCN=C=S [Molecule 3MSOOH, 1-Isothiocyanato-3-(methylsulfonyl)-propane]
- EC50 (Alternaria radicina; [4]): 469 µM
- EC50 [1, 4]: 536 µM
- EC50 (Fusarium gramineum [2]; [4]): 387 µM
- EC50 (Fusarium gramineum [2]; read-out: EC50 Molecule 2): 387 µM

SMILES: C[S+]([O-])CCCCN=C=S (centres unmarked) [Molecule 4MSOH, 1-Isothiocyanato-4-(methylsulfinyl)-butane]
- EC50 (Fusarium gramineum [3]; Fusarium): 628 µM
- ED50 P. cactorum (Phytophthora cactorum): <1500 µM

SMILES: C[S+]([O-])CCCCCN=C=S (centres unmarked) [Molecule 5MSOH, 1-isothiocyanato-5-(methylsulfinyl)-pentane]
- ED95 Botrytis cinerea (Botrytis cinerea; Table 4): <1500 µM
- fungitoxic activity against Botrytis cinerea (in words) (Botrytis cinerea): none of these single compounds revealed fungitoxic effect

SMILES: CS(=O)(=O)CCCCCN=C=S [Molecule 5MSOOH, 1-Isothiocyanato-5-(methylsulfonyl)-pentane]
- ED95 Botrytis cinerea (Botrytis cinerea; Table 4): <1500 µM
- fungitoxic activity against Botrytis cinerea (in words) (Botrytis cinerea): none of these single compounds revealed fungitoxic effect

SMILES: CS(=O)(=O)CCCCCCN=C=S [Molecule 6MSOOH, 1-Isothiocyanato-6-(methylsulfonyl)-hexane]
- EC50 (Fusarium gramineum [3]; [5]): <1500 µM
- fungistatic effect on Fusarium gramineum (in words) (Fusarium gramineum [3]; in the dosage of 1500 μM): not fungistatic
- ED50 P. cactorum (Phytophthora cactorum; [5]): <1500 µM

SMILES: C[S+]([O-])CCCCCCCN=C=S (centres unmarked) [Molecule 7MSOH, 1-Isothiocyanato-7-(methylsulfinyl)-heptane]
- EC50 (Alternaria radicina; [6]): 537 µM
- EC50 [1, 4]: 337 µM
- EC50 (Fusarium gramineum [2]; [4]): 586 µM
- EC50 (Fusarium gramineum [2]; read-out: EC50 Molecule 2): 586 µM

SMILES: C[S+]([O-])CCCCc1cccc(CN=C=S)c1 (centres unmarked) [Molecule 8ASOH, 1-(isothiocyanatomethyl)-3-(4-(methylsulfinyl)butyl)benzene]
- EC50 (Alternaria radicina; [7]): 723 µM

SMILES: CS(=O)(=O)CCCCc1cccc(CN=C=S)c1 [Molecule 8ASOOH, 1-(isothiocyanatomethyl)-3-(4-(methylsulfonyl)butyl)benzene]
- EC50 (Alternaria radicina; [6]): > 850 µM

SMILES: C[S+]([O-])CCCCC/C=C/CN=C=S (centres unmarked) [Molecule 8CSOH, (E)-1-isothiocyanato-8-(methylsulfinyl)oct-2-ene]
- EC50 (Alternaria radicina; [7]): 472 µM
- EC50 (Alternaria radicina; read-out: EC50 Molecule 1, first molecule alone, range 10-850 μM, 850 = no fungitoxic activity in the tested range): 704 µM
- EC50 ([1]; read-out: EC50 Molecule 1): 273 µM
- EC50 (Fusarium gramineum [2]; [8]): > 850 µM
- EC50 (Fusarium gramineum [2]; read-out: EC50 Molecule 1): > 850 µM

SMILES: CC[S+]([O-])CCCCCCCCN=C=S (centres unmarked) [Molecule 8ESOH, 1-(ethylsulfinyl)-8-isothiocyanatooctane]
- EC50 (Alternaria radicina; [6]): 472 µM
- EC50 (Fusarium gramineum [2]; [8]): 533 µM
- EC50 (Fusarium gramineum [2]; read-out: EC50 Molecule 1): 533 µM

SMILES: CCS(=O)(=O)CCCCCCCCN=C=S [Molecule 8ESOOH, 1-(ethylsulfonyl)-8-isothiocyanatooctane]
- EC50 (Alternaria radicina; [6]): > 850 µM

SMILES: C[S+]([O-])CCCCCCCCN=C=S (centres unmarked) [Molecule 8MSOH, 1-Isothiocyanato-8-(methylsulfinyl)-octane]
- EC50 (Fusarium gramineum [3]; [9]): 292 µM
- ED95 F. oxysporum (Fusarium oxysporum): <1500 µM
- fungitoxic activity against Fusarium oxysporum (in words) (Fusarium oxysporum): no fungitoxic effect
- EC50 (Guignardia bidwellii): 30.4 µM
- EC50 (Phytophthora infestans): 26.4 µM
- EC50 (Fusarium gramineum [2]; [8]): 317 µM
- EC50 (Fusarium gramineum [2]; [4]): 317 µM
- EC50 (Fusarium gramineum [2]; read-out: EC50 Molecule 1): 317 µM
- ED95 Botrytis cinerea (Botrytis cinerea; Table 2): <1500 µM
- ED95 Botrytis cinerea (Botrytis cinerea; Table 4): <1500 µM
- fungitoxic activity against Botrytis cinerea (in words) (Botrytis cinerea): no fungitoxic effect; also recorded: none of these single compounds revealed fungitoxic effect

SMILES: CS(=O)(=O)CCCCCCCCN=C=S [Molecule 8MSOOH, 1-Isothiocyanato-8-(methylsulfonyl)-octane]
- EC50 (Fusarium gramineum [3]; Fusarium, Table 3, maximal dosage 1500 μM): 464 µM
- EC50 (Fusarium gramineum [3]; [9]): 22.2 µM
- EC50 (Phytophthora cactorum; Phytophthora cactorum, read-out: ED50 P. cactorum): 628 µM
- ED95 F. oxysporum (Fusarium oxysporum): <1500 µM
- fungitoxic activity against Fusarium oxysporum (in words) (Fusarium oxysporum): no fungitoxic effect
- EC50 (Guignardia bidwellii): 464 µM
- EC50 (Phytophthora infestans): 350 µM
- EC50 ([1]; read-out: EC50 Molecule 1): > 850 µM
- EC50 (Fusarium gramineum [2]; [8]): > 850 µM
- ED95 Botrytis cinerea (Botrytis cinerea; Table 2): <1500 µM
- ED95 Botrytis cinerea (Botrytis cinerea; Table 4): <1500 µM
- fungitoxic activity against Botrytis cinerea (in words) (Botrytis cinerea): no fungitoxic effect; also recorded: none of these single compounds revealed fungitoxic effect

SMILES: CS(=O)(=O)CCCCCCCCC#N [Molecule 8MSOON, 8-(methylsulfonyl)octylnitrile]
- ED95 F. oxysporum (Fusarium oxysporum): <1500 µM
- ED95 Botrytis cinerea (Botrytis cinerea; Table 2): <1500 µM

SMILES: C[S+]([O-])CCCCCCCCCN=C=S (centres unmarked) [Molecule 9MSOH, 1-Isothiocyanato-9-(methylsulfinyl)-nonane]
- EC50 (Fusarium gramineum [2]; [4]): 553 µM

SMILES: CS(=O)(=O)CCCCCCCCCN=C=S [Molecule 9MSOOH, 1-Isothiocyanato-9-(methylsulfonyl)-nonane]
- EC50 (Fusarium gramineum [2]; [4]): > 850 µM
